Assay results published in US20230406859A1, “METHOTREXATE ANALOGS AND METHODS OF USE” (The United States of America, as represented by the …, priority 2020, published 2023).
Read-outs that look alike come from different tables or passages of the source.

Assays:
[1] = target: T1, human DHFR-HiBiT fusion protein (Homo sapiens, UniProt P00374); assay: DHFR-HiBiT assay (high-throughput DHFR abundance) in HBL1 cells; type: cell-based; settings: for Dmax: % change in untreated cellular DHFR level (control), negative = degradation, positive = stabilization, HBL1, 24 h, read-out: efficacy (%)
T1 construct: expressed in transfected cells; host or cells: HBL1 cells retrovirally infected with pBMN-Ires-Lyt-2 carrying DHFR-HiBiT
T1 sequence (P00374 with tags, fused parts or gaps): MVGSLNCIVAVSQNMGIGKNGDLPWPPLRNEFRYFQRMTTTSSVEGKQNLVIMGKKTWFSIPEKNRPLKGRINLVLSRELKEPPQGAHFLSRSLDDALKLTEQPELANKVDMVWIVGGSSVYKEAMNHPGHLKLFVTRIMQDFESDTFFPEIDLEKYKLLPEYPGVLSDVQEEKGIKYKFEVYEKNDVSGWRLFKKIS
Excerpt: The human DHFR-HiBiT construct was synthetized (Bio Basic) and cloned into the retroviral vector pBMN-Ires-Lyt-2 (provided by G. Nolan, Stanford University, Stanford, CA) which expresses the coding region of mouse CD8a (Lyt-2) using the restriction sites BamHI/XhoI. All constructs were sequenced to validate authenticity. Infected cells were positively selected based on murine CD8a expression using magnetic beads (Miltenyi Biotech).
Cell culture: Human embryonic kidney HEK293T cells were maintained in DMEM (Gibco) supplemented with 10% fetal bovine serum (Hyclone), 2 mmol/L 1-glutamine, HEPES (Gibco) and 100 U/mL penicillin/streptomycin (Invitrogen). The lymphoma cell line HBL1 were maintained in RPMI (Life Technology) supplemented with 5% fetal bovine serum (Hyclone), 2 mmol/L L-glutamine, HEPES (Gibco) and 100 U/mL penicillin/streptomycin (Invitrogen).
Transfection and retroviral infections: Transfections were performed using Lipofectamine 2000 (Invitrogen) according to the manufacturer's protocol. For retroviral infections, viruses were produced in HEK293T cells and used to infect HBL1 cell line. […] Supernatants containing the retrovirus were collected and filtered at 48- and 72-hours post-transfection. HBL1 cells were centrifuged and then resuspended with the retroviral supernatant with 8 μg/ml of polybrene. The cells were spin-infected twice on consecutive days at 2,500 rpm, at RT, for 90 minutes.
Lytic HiBiT Detection: Cells were plated in solid white 1536-well tissue culture plates (Greiner), at the concentration of 2000 cells/well. After treatment, an equal volume of Nano-Glo HiBiT Lytic Reagent (Promega) containing the substrate furimazine and Large BiT (LgBiT) was added to the cells according to the manufacturer's protocol. Cells were incubated for 10 min at room temperature, and luminescence was measured using a Perkin Elmer ViewLux microplate imager with 30 seconds of exposure time.

HBL1 cell line = assay: CellTiter-Glo cell viability (cytotox), HBL1 cell line, 72 hours; type: cell-based
Experimental: (§1) CellTiter-Glo viability assays: Five μL of cells (2500 cells) from the 12-well plate culture were plated into white 1536-well plates (Greiner, Monroe, NC, 789173-F) in 6 replicates. CellTiter-Glo Luminescent Cell Viability Assay (CTG) (Promega, G7572), 2.5 μL/well reagent was added with a BioRAPTR FRD (Beckman Coulter, Sykesville, MD), plates were incubated in the dark at ambient temperature for 10 min, and luminescence measured with a ViewLux 1430 Ultra HTS (Perkin Elmer, Waltham, MA).

[2] = test system: MTX-resistant HBL1 cell line; type: cell-based
Experimental: as §1

HBL1 cells = assay: CellTiter-Glo assay of cellular ATP levels in HBL1 cells (16 h); type: cell-based
Experimental: (§2) Cell Culture Methods: Cells (HBL1, immortalized fibroblasts from a healthy donor, or 293T) were seeded at the numbers indicated in a 12-well plate in 500 ul. […] Human embryonic kidney HEK293T cells and immortalized fibroblasts were maintained in DMEM (Gibco) supplemented with 10% fetal bovine serum (Hyclone), 2 mmol/L L-glutamine, Hepes (Gibco), and 100 U/mL penicillin/streptomycin (Invitrogen). The lymphoma cell line HBL1 was maintained in RPMI (Life Technology) supplemented with 5% fetal bovine serum (Hyclone), 2 mmol/L 1-glutamine, Hepes (Gibco), and 100 U/mL penicillin/streptomycin (Invitrogen). Cells were cultured in incubators maintained at 37° C., with 5% CO2 and 85% humidity.
as §1, with “Cell-Titer-Glo viability” for “CellTiter-Glo viability”

293T cells = assay: CellTiter-Glo ATP levels in 293T cells; type: cell-based, human
Experimental: as §2
as §1, with “Cell-Titer-Glo viability” for “CellTiter-Glo viability”

fibroblasts = assay: CellTiter-Glo ATP levels in fibroblasts; type: cell-based
Experimental: as §2
as §1, with “Cell-Titer-Glo viability” for “CellTiter-Glo viability”

DHFR [3] = target: T2, DHFR (Homo sapiens, UniProt P00374); type: cell-based; settings: HBL1 cells, Western blot
T2 construct: Western blot detection of DHFR levels after treatment of HBL1 cells for 16 h; endogenous in cells; host or cells: HBL1 lymphoma cell line
T2 sequence (P00374 1-187): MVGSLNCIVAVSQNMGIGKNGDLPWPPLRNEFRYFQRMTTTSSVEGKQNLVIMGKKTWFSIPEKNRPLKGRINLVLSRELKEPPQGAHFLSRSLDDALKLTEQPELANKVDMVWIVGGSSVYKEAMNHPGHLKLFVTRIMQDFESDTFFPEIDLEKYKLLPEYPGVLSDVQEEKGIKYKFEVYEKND
Excerpt: Human embryonic kidney HEK293T cells and immortalized fibroblasts were maintained in DMEM (Gibco) supplemented with 10% fetal bovine serum (Hyclone), 2 mmol/L L-glutamine, Hepes (Gibco), and 100 U/mL penicillin/streptomycin (Invitrogen). The lymphoma cell line HBL1 was maintained in RPMI (Life Technology) supplemented with 5% fetal bovine serum (Hyclone), 2 mmol/L 1-glutamine, Hepes (Gibco), and 100 U/mL penicillin/streptomycin (Invitrogen).
Western blotting: Cells at confluence from 12-well plate treatments were washed with PBS and lysed in 75 μL/well NP40 lysis buffer (Cell Signaling), subjected to agitation and centrifugation. Approximately 100 μg of total protein was used per analysis. […] Blots were first incubated with 1:2000 dilution of anti-human DHFR antibody (Abcam, ab124814, host rabbit) for 16 h at 4° C. with shaking, washed 3× with TBS-T and incubated with 1:2000 dilution of anti-human β-actin primary antibody (Cell Signaling, host mouse) for 1 h at ambient temperature with shaking. Blots were then washed 3× with TBS-T and incubated with 1:5000 HRP secondary antibody (Novex, anti-Rabbit IgG raised in Goat, 1 mg/ml) for 1 h at ambient temperature, then washed with 3×TBS-T and developed with Pierce ECL Dura reagent for 5 min. Immunoreactive bands were imaged on a ChemiDoc Imaging System (Bio-Rad) with 20 s chemiluminescence exposure. The molecular weight marker ladder was imaged with colorimetric auto-exposure, and both images merged.

[4] = target: T3, thymidylate synthase (TS) (Homo sapiens, UniProt P04818); assay: Western blot of thymidylate synthase levels in fibroblasts; type: cell-based; settings: 16 h
T3 sequence (P04818 2-313 limits assumed): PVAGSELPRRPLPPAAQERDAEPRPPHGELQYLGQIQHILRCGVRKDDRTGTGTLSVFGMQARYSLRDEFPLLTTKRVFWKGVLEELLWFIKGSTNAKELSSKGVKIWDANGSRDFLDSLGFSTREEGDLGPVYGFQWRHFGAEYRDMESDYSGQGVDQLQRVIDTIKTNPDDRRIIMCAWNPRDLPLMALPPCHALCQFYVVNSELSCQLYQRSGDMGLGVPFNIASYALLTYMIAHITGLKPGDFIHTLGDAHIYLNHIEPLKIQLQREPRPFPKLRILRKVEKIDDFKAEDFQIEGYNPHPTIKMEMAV

[5] = target: T3, thymidylate synthase (TS); assay: Western blot of thymidylate synthase levels in 293T cells; type: cell-based; settings: 16 h
[6] = target: T3, thymidylate synthase (TS); assay: Western blot of thymidylate synthase levels in HBL1 cells; type: cell-based; set-up: Western blot detection of folate-cofactor dependent enzyme levels after treatment of HBL1 cells; endogenous in cells; host or cells: HBL1 lymphoma cell line; settings: 1 μM, 16 h
DHFR [7] = target: T2, DHFR; assay: Western blot detection of DHFR levels in fibroblasts; type: cell-based; settings: 16 h at 1 μM
Experimental: as §2
(§3) Western blotting: Cells at confluence from 12-well plate treatments were washed with PBS and lysed in 75 μL/well NP40 lysis buffer (Cell Signaling), subjected to agitation and centrifugation. Approximately 100 μg of total protein was used per analysis. Proteins were sized on a NuPAGE 12% Bis-Tris Gel, 1.0 mm×10 wells, proteins transferred to 0.2 μm nitrocellulose membrane for 60 min followed by blocking with 5% t milk in TBS-T for 1 h at ambient temperature with gentle shaking. […]

DHFR [8] = target: T2, DHFR; assay: Western blot detection of DHFR levels in 293T cells; type: cell-based; settings: 16 h at 1 μM
Experimental: as §2, §3

[9] = HBL1 cell line, CellTiter-Glo, unit inferred

SMILES | Dmax [1] [%] | DC50 ([1]; HBL1 cells expressing DHFR-HiBiT, 24 h, degradation or stabilization potency, average of N = 2-5, read-out: Ave EC50) [nM] | IC50 (HBL1 cell line; [9]) [nM] | cellular toxicity in MTX-resistant HBL1 cell line [2] | effect on cellular ATP levels (acute cellular toxicity) (HBL1 cells) | IC50 (HBL1 cells; HBL1, 16 h, read-out: IC50 for cellular ATP-depletion) [nM] | effect on ATP levels (293T cells) | effect on ATP levels (fibroblasts) | IC50 (HBL1 cell line) [nM] | effect on DHFR protein levels (DHFR [3]) | effect on TS protein level [4] | effect on TS protein level [5] | effect on TS protein level [6] | effect on DHFR protein levels (DHFR [7]) | effect on DHFR protein levels (DHFR [8])
CN(Cc1cnc2nc(N)nc(N)c2n1)c1ccc(C(=O)NC(CC(F)C(=O)O)C(=O)O)cc1 (centres unmarked) [FMTX, 2-(4-(((2,4-diaminopteridin-6-yl)methyl)(methyl)amino)benzamido)-4-fluoropentanedioic acid, reference compound] | -115 | 280 | 1100 | greatly decreased | – | – | – | – | – | – | – | – | – | – | –
CN(Cc1cnc2nc(N)nc(N)c2n1)c1ccc(C(=O)N[C@@H](CCC(=O)O)C(=O)O)cc1 [MTX, (4-(((2,4-diaminopteridin-6-yl)methyl)(methyl)amino)benzoyl)-L-glutamic acid, reference compound] | – | – | – | greatly decreased | significantly depleted ATP levels | ~200 | ATP-depleting properties | ATP-depleting properties | 57.1 | – | – | – | – | – | –
CN(Cc1cnc2nc(N)nc(N)c2n1)c1ccc(C(=O)N[C@@H](CCC(=O)NCCCCCCCCNc2cccc3c2C(=O)N(C2CCC(=O)NC2=O)C3=O)C(=O)O)cc1 (stereo partly drawn) [NCGC00685928, N2-(4-(((2,4-diaminopteridin-6-yl)methyl)(methyl)amino)benzoyl)-N5-(8-((2-(2,6-dioxopiperidin-3-yl)-1,3-dioxoisoindolin-4-yl)amino)octyl)-L-glutamine] | 65 | – | 23700 | – | – | – | – | – | – | robust DHFR depletion | low but detectable increases in TS | no significant change in TS levels | slight increase in TS | – | –
CN(Cc1cnc2nc(N)nc(N)c2n1)c1ccc(C(=O)N[C@@H](CCC(=O)NCCCNc2cccc3c2C(=O)N(C2CCC(=O)NC2=O)C3=O)C(=O)O)cc1 (stereo partly drawn) [NCGC00685938, N2-(4-(((2,4-diaminopteridin-6-yl)methyl)(methyl)amino)benzoyl)-N5-(3-((2-(2,6-dioxopiperidin-3-yl)-1,3-dioxoisoindolin-4-yl)amino)propyl)-L-glutamine] | – | – | 1660 | – | – | – | – | – | – | essentially inactive | low but detectable increases in TS | no significant change in TS levels | slight increase in TS | significant degradation of DHFR | essentially inactive
